In patent publication US20110070258A1, “METHOD OF SLOWING THE AGING PROCESS BY ACTIVATING SIRTUIN ENZYMES” (Polifenoles Naturales, S.L., priority 2009, published 2011):

Legend:
[1] = Energy expenditure by indirect calorimetry in obese subjects (dose-response clinical trial); assay type: in vivo, human; conditions: for Energy Expenditure, Baseline: n = 4; for Energy Expenditure, Baseline / Energy Expenditure, 2 weeks / Energy Expenditure, 5 weeks / Energy Expenditure, 10 weeks / Energy Expenditure, 16 weeks / Total Energy Expenditure, to (16 weeks) / Total Energy Expenditure, From (baseline) / Change in Total Energy Expenditure, Net: NAFLD; for Change in Total Energy Expenditure, Net: baseline to 16 weeks
Experimental: Energy expenditure rate (EER) was measured in patients by indirect calorimetry. Oxygen was measured with an electrochemical oxygen sensor, and carbon dioxide was measured with an infrared carbon dioxide sensor (Ametec Carbon Dioxide Analyzer). Before each measurement, the instrument was calibrated with a mixture of O2 and CO2 gases. Rates of oxygen consumption (O2) and carbon dioxide production (CO2) were calculated and printed out at 1-min intervals. Energy expenditure was derived from O2 and CO2 values.
Obese subjects diagnosed with NAFLD and with apparently healthy liver (HL) were matched in pairs based on age, body weight and body fat mass and were randomly divided into Experimental NAFLD group (n=36), Placebo NAFLD (n=36), Experimental HL (n=19) and Placebo-HL group (n=19). Subjects were randomly assigned, in equal numbers, to the phytomedicine experimental groups and the Placebo control group, using the Simple Randomization Procedure. Their daily dietary intake was restricted to 1800±100 kcals, of which 50±5% was in the form of carbohydrates, 30±5% from protein, and 20±5% from fat. Subjects were also instructed to consume all the foods and beverages designated by dieticians and provided by the Institute, and to eat no other food or high calories beverages. […] During the clinical phase, subjects were required to visit a designated hospital three times a week for physiological and biochemical analysis. Institute provided all foods and beverages by designated dieticians and labeled as B, L, and D for breakfast, lunch and dinner, respectively.
The brown marine vegetable extract was suspended in 100 mg cold-pressed pomegranate seed oil. The pomegranate seed oil was standardized to contain a minimum of 70% punicic acid, for a total weight of 200 mg/capsule. The content of fucoxanthin in Experimental Sample (Xanthigen) was analyzed using high performance liquid chromatography method, and the fatty acids were analyzed by Gas Chromatography method. The HPLC profile of the brown marine vegetable extract is shown in FIG. 2A, along with an HPLC chromatogram of pure fucoxanthin for comparison in FIG. 2B.
Energy expenditure (EE) and substrate oxidations were measured by indirect calorimetry as described previously (Ranneries et al., 1998). Oxygen was measured with an electrochemical oxygen sensor, and carbon dioxide was measured by an infrared carbon dioxide sensor (Ametec Carbon Dioxide Analyzer). Calculations of EE and substrate oxidation rates were performed as previously described (Astrup et al., 1991). Protein oxidation was assumed to be constant and amounting to 15% of EE. […] The reliability was assessed by the coefficient of variation on resting energy expenditure repeated every week.

[2] = test system: Sirt1; test: Sirt1 expression by Western Blot in differentiated 3T3-L1 adipocytes; assay type: cell-based, mouse
Experimental: The effect of fucoxanthin/punicic acid mixtures on Sirt1 expression in murine cells was studied. Mouse 3T3-L1 pre-adipocytes purchased from the American Type Culture Collection (Rockville, Md.) were grown in Dubecco's modified Eagle's medium (DMEM) (Gibco BRL, Grand Island, N.Y.) supplemented with 2 mM glutamine (GIBCO BRL), 1% penicillin/streptomycin (10000 units of penicillin/mL and 10 mg streptomycin/mL) and 10% fetal bovine serum at 37° C. under a humidified 5% CO2 atmosphere. For differentiation of 3T3-L1 pre-adipocytes, cells were seeded into 6-well culture plates (2×10^4/mL) and cultured as described above. […] The fucoxanthin extract used in this study of Sirt1 expression in murine cells was an extract of the complete plant of Undaria […]. The extract contains 0.8% by weight fucoxanthin and 30% by weight marine vegetable oil. The fucoxanthin extract used may further contain ≦10.0 wt. % palm oil. The pomegranate seed oil used in this study contains 70 wt. % punicic acid, and is an extract of the seeds of the Punica granatum plant. […], the fucoxanthin/punicic acid mixture used in this study, contains 50 wt. % of the fucoxanthin extract, and 50 wt. % of the pomegranate seed oil. […] The total proteins are measured by Bio-Rad Protein Assay (Bio-Rad Laboratories, Munich, Germany). […]

Structure (SMILES): CC(=O)O[C@H]1CC(C)(C)C(=C=C/C(C)=C/C=C/C(C)=C/C=C/C=C(C)/C=C/C=C(\C)C(=O)C[C@@]23O[C@]2(C)C[C@@H](O)CC3(C)C)[C@](C)(O)C1 [Fucoxanthin, fucoxanthin]
- increase in daily energy expenditure rate ([1]; 25 mg fucoxanthin alone): 1152 ± 290 kJ/day
- Energy Expenditure, Baseline ([1]; Fucoxanthin 10 mg per day): 5.82 ± 0.18 kJ/min
- Energy Expenditure, 2 weeks ([1]; Fucoxanthin 10 mg per day): 5.69 ± 0.21 kJ/min
- Energy Expenditure, 5 weeks ([1]; Fucoxanthin 10 mg per day): 5.93 ± 0.15 kJ/min
- Energy Expenditure, 10 weeks ([1]; Fucoxanthin 10 mg per day): 5.69 ± 0.21 kJ/min
- Energy Expenditure, 16 weeks ([1]; Fucoxanthin 10 mg per day): 5.98 ± 0.18 kJ/min
- Total Energy Expenditure, to (16 weeks) ([1]; Fucoxanthin 10 mg per day): 8611 kJ/24 h
- Total Energy Expenditure, From (baseline) ([1]; Fucoxanthin 10 mg per day): 8381 kJ/24 h
- Change in Total Energy Expenditure, Net ([1]; Fucoxanthin 10 mg per day, NS vs placebo): Net 230 ± 147 kJ/24 h
- Energy Expenditure, Baseline ([1]; Fucoxanthin 15 mg per day): 5.85 ± 0.27 kJ/min
- Energy Expenditure, 2 weeks ([1]; Fucoxanthin 15 mg per day): 5.89 ± 0.14 kJ/min
- Energy Expenditure, 5 weeks ([1]; Fucoxanthin 15 mg per day): 5.98 ± 0.17 kJ/min
- Energy Expenditure, 10 weeks ([1]; Fucoxanthin 15 mg per day): 6.11 ± 0.21 kJ/min
- Energy Expenditure, 16 weeks ([1]; Fucoxanthin 15 mg per day): 6.39 ± 0.17 kJ/min
- Total Energy Expenditure, to (16 weeks) ([1]; Fucoxanthin 15 mg per day): 9202 kJ/24 h
- Total Energy Expenditure, From (baseline) ([1]; Fucoxanthin 15 mg per day): 8424 kJ/24 h
- Change in Total Energy Expenditure, Net ([1]; Fucoxanthin 15 mg per day, p < 0.05 vs placebo): Net 778 ± 260 kJ/24 h
- Energy Expenditure, Baseline ([1]; Fucoxanthin 25 mg per day): 5.92 ± 0.16 kJ/min
- Energy Expenditure, 2 weeks ([1]; Fucoxanthin 25 mg per day): 6.02 ± 0.23 kJ/min
- Energy Expenditure, 5 weeks ([1]; Fucoxanthin 25 mg per day): 5.92 ± 0.27 kJ/min
- Energy Expenditure, 10 weeks ([1]; Fucoxanthin 25 mg per day): 6.29 ± 0.31 kJ/min
- Energy Expenditure, 16 weeks ([1]; Fucoxanthin 25 mg per day): 6.72 ± 0.22 kJ/min
- Total Energy Expenditure, to (16 weeks) ([1]; Fucoxanthin 25 mg per day): 9677 kJ/24 h
- Total Energy Expenditure, From (baseline) ([1]; Fucoxanthin 25 mg per day): 8525 kJ/24 h
- Change in Total Energy Expenditure, Net ([1]; Fucoxanthin 25 mg per day, p < 0.05 vs placebo): Net 1152 ± 290 kJ/24 h
- Energy Expenditure, Baseline ([1]; Fucoxanthin 50 mg per day): 6.04 ± 0.24 kJ/min
- Energy Expenditure, 2 weeks ([1]; Fucoxanthin 50 mg per day): 5.91 ± 0.31 kJ/min
- Energy Expenditure, 5 weeks ([1]; Fucoxanthin 50 mg per day): 6.32 ± 0.22 kJ/min
- Energy Expenditure, 10 weeks ([1]; Fucoxanthin 50 mg per day): 6.92 ± 0.31 kJ/min
- Energy Expenditure, 16 weeks ([1]; Fucoxanthin 50 mg per day): 7.37 ± 0.35 kJ/min
- Total Energy Expenditure, to (16 weeks) ([1]; Fucoxanthin 50 mg per day): 10613 kJ/24 h
- Total Energy Expenditure, From (baseline) ([1]; Fucoxanthin 50 mg per day): 8698 kJ/24 h
- Change in Total Energy Expenditure, Net ([1]; Fucoxanthin 50 mg per day, p < 0.001 vs placebo): Net 1915 ± 246 kJ/24 h
- EER ([1]; fucoxanthin dose of 1.6 mg per se): not effective per se
- minimum effective dose (increase of EER), stand alone ([1]; obese subjects, stand alone): 2.4 mg

Structure (SMILES): CCCC\C=C/C=C/C=C\CCCCCCCC(=O)O [punicic acid, 9-cis, 11-trans conjugated linolenic acid (9c,11t,13c-CLNA)]
- Effect on Sirt1 protein levels / expression [2]: suppresses Sirt1 expression
